In the NIST ThermoML archive (doi:10.1016/j.fluid.2013.06.021):

Experiment: xn = mol fraction of the nth substance listed
Settings: 101 kPa, Liquid; for speed of sound: Sing-around technique in a fixed-path interferometer; for mass density: Vibrating tube method; for viscosity: Capillary tube (Ostwald / Ubbelohde) method

CCCCOCCO [2-butoxyethan-1-ol] + CCCO
Settings	mass density [kg/m3]	speed of sound [m/s]	viscosity [mPa·s]
293.15 K, x1 = 0.052	812.72	1233.5	–
293.15 K, x1 = 0.1024	820.5	1241.8	–
293.15 K, x1 = 0.1524	827.69	1249.4	–
293.15 K, x1 = 0.1986	833.97	1255.9	–
293.15 K, x1 = 0.2528	840.79	1263	–
293.15 K, x1 = 0.3032	846.73	1269.1	–
293.15 K, x1 = 0.4064	857.67	1280.4	–
293.15 K, x1 = 0.5015	866.6	1289.5	–
293.15 K, x1 = 0.6031	875.08	1298.1	–
293.15 K, x1 = 0.7006	882.33	1305.4	–
293.15 K, x1 = 0.8022	889.07	1312.2	–
293.15 K, x1 = 0.8553	892.31	1315.4	–
293.15 K, x1 = 0.9066	895.25	1318.3	–
293.15 K, x1 = 0.9516	897.7	1320.8	–
298.15 K, x1 = 0.052	808.78	1216.5	1.991
298.15 K, x1 = 0.1024	816.6	1224.8	2.014
298.15 K, x1 = 0.1524	823.84	1232.3	2.048
298.15 K, x1 = 0.1986	830.06	1238.9	2.079
298.15 K, x1 = 0.2528	836.87	1245.9	2.122
298.15 K, x1 = 0.3032	842.76	1252	2.163
298.15 K, x1 = 0.4064	853.64	1263.3	2.256
298.15 K, x1 = 0.5015	862.56	1272.3	2.351
298.15 K, x1 = 0.6031	871.01	1280.9	2.457
298.15 K, x1 = 0.7006	878.24	1288.3	2.558
298.15 K, x1 = 0.8022	884.94	1295.1	2.666
298.15 K, x1 = 0.8553	888.19	1298.3	2.725
298.15 K, x1 = 0.9066	891.15	1301.3	2.779
298.15 K, x1 = 0.9516	893.62	1303.7	2.83
303.15 K, x1 = 0.052	804.75	1199.4	1.751
303.15 K, x1 = 0.1024	812.56	1207.8	1.776
303.15 K, x1 = 0.1524	819.76	1215.4	1.811
303.15 K, x1 = 0.1986	825.96	1221.9	1.844
303.15 K, x1 = 0.2528	832.81	1229	1.883
303.15 K, x1 = 0.3032	838.66	1235.1	1.925
303.15 K, x1 = 0.4064	849.51	1246.3	2.027
303.15 K, x1 = 0.5015	858.44	1255.4	2.129
303.15 K, x1 = 0.6031	866.86	1264	2.233
303.15 K, x1 = 0.7006	874.08	1271.3	2.338
303.15 K, x1 = 0.8022	880.81	1278	2.443
303.15 K, x1 = 0.8553	884.07	1281.3	2.505
303.15 K, x1 = 0.9066	887.02	1284.2	2.559
303.15 K, x1 = 0.9516	889.53	1286.6	2.615
308.15 K, x1 = 0.052	800.67	1182.4	1.578
308.15 K, x1 = 0.1024	808.47	1190.8	1.597
308.15 K, x1 = 0.1524	815.69	1198.4	1.627
308.15 K, x1 = 0.1986	821.89	1205	1.657
308.15 K, x1 = 0.2528	828.69	1212.1	1.69
308.15 K, x1 = 0.3032	834.55	1218.3	1.726
308.15 K, x1 = 0.4064	845.38	1229.5	1.804
308.15 K, x1 = 0.5015	854.29	1238.6	1.874
308.15 K, x1 = 0.6031	862.71	1247.2	1.953
308.15 K, x1 = 0.7006	869.93	1254.4	2.026
308.15 K, x1 = 0.8022	876.64	1261.1	2.11
308.15 K, x1 = 0.8553	879.9	1264.3	2.156
308.15 K, x1 = 0.9066	882.86	1267.2	2.188
308.15 K, x1 = 0.9516	885.32	1269.7	2.218
313.15 K, x1 = 0.052	796.66	1165.4	–
313.15 K, x1 = 0.1024	804.45	1173.7	–
313.15 K, x1 = 0.1524	811.62	1181.4	–
313.15 K, x1 = 0.1986	817.8	1188	–
313.15 K, x1 = 0.2528	824.54	1195.2	–
313.15 K, x1 = 0.3032	830.4	1201.5	–
313.15 K, x1 = 0.4064	841.23	1212.9	–
313.15 K, x1 = 0.5015	850.1	1222	–
313.15 K, x1 = 0.6031	858.52	1230.6	–
313.15 K, x1 = 0.7006	865.71	1237.8	–
313.15 K, x1 = 0.8022	872.48	1244.4	–
313.15 K, x1 = 0.8553	875.69	1247.6	–
313.15 K, x1 = 0.9066	878.69	1250.5	–
313.15 K, x1 = 0.9516	881.14	1252.9	–
